The values that follow come from US7205410B2, “4-(aminomethyl)-piperidine benzamides for treating gastrointestinal disorders” (Janssen Pharmaceutica, N.V., priority 1998, dated 2007).

One data set addresses T1, 5HT4 (Rattus norvegicus, UniProt Q62758).
T1 construct: 5HT4 Antagonism in Rat Oesophageal Tunica Muscularis Mucosae; from tissue; host or cells: rat oesophageal tunica muscularis mucosae
Description: 5HT4 antagonism in rat oesophageal tunica muscularis mucosae. Type of data set: cell-based. Particulars: 5HT4 antagonistic data, isolated rat oesophageal tunica muscularis mucosae, method of Baxter et al. The protocol:
5HT4 Antagonism in Rat Oesophageal Tunica Muscularis Mucosae
The 5HT4 antagonistic potence of the present compounds was measured as described in Baxter G. S. et. al, Naunyn-Schmiedeberg's Arch. Pharmacol., 343, 439-446 ([…]).
The pA2 value is calculated as follows: [formula]

T1 sequence (Q62758 whole entry): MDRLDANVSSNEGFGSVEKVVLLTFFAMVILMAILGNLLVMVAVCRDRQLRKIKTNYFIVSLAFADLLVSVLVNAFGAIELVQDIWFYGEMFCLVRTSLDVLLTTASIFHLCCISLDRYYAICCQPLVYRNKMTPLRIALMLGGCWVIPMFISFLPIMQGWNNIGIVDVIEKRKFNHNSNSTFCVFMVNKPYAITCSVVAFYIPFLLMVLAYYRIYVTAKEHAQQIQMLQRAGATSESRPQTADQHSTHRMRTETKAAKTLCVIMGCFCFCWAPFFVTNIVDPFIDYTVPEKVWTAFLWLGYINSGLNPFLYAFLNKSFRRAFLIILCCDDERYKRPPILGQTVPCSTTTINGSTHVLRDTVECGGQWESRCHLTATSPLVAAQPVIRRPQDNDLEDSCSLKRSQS

`CCCCN1CC[C@@H](CNC(=O)c2cc(Cl)cc3c2OCCO3)[C@H](O)C1` (racemic) [Compound 64, (±)-(trans)-N-[(1-butyl-3-hydroxy-4-piperidinyl)methyl]-7-chloro-2,3-dihydro-1,4-benzodioxin-5-carboxamide] had a melting point of 112 °C. Besides, at 5HT4 (read-out: pA2 (converted)), the Kb is 0.1 nM.

On to `O=C(NCC1CCN(CCOCCO)CC1O)c1cc(Cl)cc2c1OCCCCO2` (centres unmarked) [Compound 190], for which, on 5HT4, the pA2 came to 8.3.

At 5HT4, `O=C(NCC1CCN(CCCO)CC1O)c1cc(Cl)cc2c1OCCCCO2` (centres unmarked) [Compound 192] gave a pA2 of 10.1.

At 5HT4, `Cl.O=C(O)CCCN1CCC(CNC(=O)c2cc(Cl)cc3c2OCCCCO3)C(O)C1` (centres unmarked) [Compound 194] showed a pA2 of 9.

As usually defined, the melting point is the temperature, or range, at which the solid turns liquid. For orientation: pA2 means the negative logarithm of the molar antagonist concentration that doubles the agonist concentration needed for the same response. A high value points to higher antagonist potency.
